According to the supplement of paper PMC11208160:
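Further: IS621 bridge recombinase in Escherichia coli cells against a fixed T5 target plasmid.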

Test: recombinant UMI read abundance after kanamycin selection (control-corrected) (log10(CPM+1)); higher = more efficient recombination; extreme values may be limits of the assay; sequences stand for … in AGTGCAGAGAAAATCGGCCAGTTTTCTCTGCCTGCAGTCCGCATGCCGTGGGACCCCTTGGGTTCTAACCTGTTGCCTAGATTTATGCAGCGGACTGCCTTTCTCCCAAAGTGATAAACCGG…AGGTTGGTTTCACT; site = the 11-nt donor
Description: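 Pooled E. coli donor-specificity screen for the IS621 bridge recombinase. Each library member carries a reprogrammed 11-nt donor and a full-length LE bridge RNA expressed in cis from the natural promoter, with a paired donor-binding loop (8-nt LDG + 4-nt RDG) and a target-binding loop fixed to T5. It is co-electroporated with a T5 target plasmid; recombinase is induced with 0.07 mM IPTG and recombinants are selected on kanamycin. UMIs are counted as CPM, averaged over two biological replicates and corrected by the unselected control. Molecule = full bridge RNA written as DNA, built from the T5 scaffold: LDG = donor specificity nt 1-8, RDG = reverse complement of nt 8-11.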
In the case of “AAATGAGCATGGACCGGTTTTCCCGGTAATCCGTATTTGGG (site CAATGAGCTCC)”, the “recombinant UMI read abundance (log10)” value was 0.247. With “AAATGAGCATGGACCGGTTTTCCCGGTAATCCGTATTTGGG (site GAATGAGCTCC)” the “recombinant UMI read abundance (log10)” value was 0.00588. For “AAATGAGCATGGACCGGTTTTCCCGGTAATCCGTATTTGGG (site TAATGAGCTCC)”, the “recombinant UMI read abundance (log10)” value was 0.46. In the case of “AAATGATCATGGACCGGTTTTCCCGGTAATCCGTATTTGAG (site AAATGATCTCT)”, the “recombinant UMI read abundance (log10)” value was 2.71. For “AAATGCACATGGACCGGTTTTCCCGGTAATCCGTATTTGGG (site AAATGCACTCC)”, the “recombinant UMI read abundance (log10)” value was 0.0107. In the case of “AAATGCTCATGGACCGGTTTTCCCGGTAATCCGTATTTGAA (site AAATGCTCTTT)”, the “recombinant UMI read abundance (log10)” value was 1.66. For “AAATGCTCATGGACCGGTTTTCCCGGTAATCCGTATTTGAA (site CAATGCTCTTT)”, the “recombinant UMI read abundance (log10)” value was 1.65. In the case of “AAATGCTCATGGACCGGTTTTCCCGGTAATCCGTATTTGAA (site GAATGCTCTTT)”, the “recombinant UMI read abundance (log10)” value was 0.961. For “AAATGCTCATGGACCGGTTTTCCCGGTAATCCGTATTTGAA (site TAATGCTCTTT)”, the “recombinant UMI read abundance (log10)” value was 1.17. With “AAATGGCCATGGACCGGTTTTCCCGGTAATCCGTATTTGCA (site AAATGGCCTTG)” the “recombinant UMI read abundance (log10)” value was 0.00935. For “AAATGGCCATGGACCGGTTTTCCCGGTAATCCGTATTTGCA (site CAATGGCCTTG)”, the “recombinant UMI read abundance (log10)” value was 0. With “AAATGGCCATGGACCGGTTTTCCCGGTAATCCGTATTTGCA (site GAATGGCCTTG)” the “recombinant UMI read abundance (log10)” value was 0. For “AAATGGCCATGGACCGGTTTTCCCGGTAATCCGTATTTGCA (site TAATGGCCTTG)”, the “recombinant UMI read abundance (log10)” value was 0. With “AAATTTGCATGGACCGGTTTTCCCGGTAATCCGTATTTGGC (site AAATTTGCTGC)” the “recombinant UMI read abundance (log10)” value was 0. In the case of “AACAAACCATGGACCGGTTTTCCCGGTAATCCGTATTTGGT (site AACAAACCTAC)”, the “recombinant UMI read abundance (log10)” value was 0. For “AACAAACCATGGACCGGTTTTCCCGGTAATCCGTATTTGGT (site CACAAACCTAC)”, the “recombinant UMI read abundance (log10)” value was 0. In the case of “AACAAACCATGGACCGGTTTTCCCGGTAATCCGTATTTGGT (site GACAAACCTAC)”, the “recombinant UMI read abundance (log10)” value was 0. In the case of “AACAAACCATGGACCGGTTTTCCCGGTAATCCGTATTTGGT (site TACAAACCTAC)”, the “recombinant UMI read abundance (log10)” value was 0.337. For “AACACCCCATGGACCGGTTTTCCCGGTAATCCGTATTTGAG (site AACACCCCTCT)”, the “recombinant UMI read abundance (log10)” value was 0.0941. With “AACACTGCATGGACCGGTTTTCCCGGTAATCCGTATTTGAG (site AACACTGCTCT)” the “recombinant UMI read abundance (log10)” value was 1.31. For “AACATACCATGGACCGGTTTTCCCGGTAATCCGTATTTGGA (site AACATACCTTC)”, the “recombinant UMI read abundance (log10)” value was 0.0114. With “AACCACTCATGGACCGGTTTTCCCGGTAATCCGTATTTGCC (site AACCACTCTGG)” the “recombinant UMI read abundance (log10)” value was 3.01. In the case of “AACCATCCATGGACCGGTTTTCCCGGTAATCCGTATTTGCC (site AACCATCCTGG)”, the “recombinant UMI read abundance (log10)” value was 0.00555. For “AACCCGGCATGGACCGGTTTTCCCGGTAATCCGTATTTGGA (site AACCCGGCTTC)”, the “recombinant UMI read abundance (log10)” value was 0.181. For “AACCCTCCATGGACCGGTTTTCCCGGTAATCCGTATTTGAT (site AACCATCCTAT)”, the “recombinant UMI read abundance (log10)” value was 0.00728. With “AACCCTCCATGGACCGGTTTTCCCGGTAATCCGTATTTGAT (site AACCCTCCTAT)” the “recombinant UMI read abundance (log10)” value was 0.115. For “AACCCTCCATGGACCGGTTTTCCCGGTAATCCGTATTTGAT (site AACCGTCCTAT)”, the “recombinant UMI read abundance (log10)” value was 0.015. In the case of “AACCCTCCATGGACCGGTTTTCCCGGTAATCCGTATTTGAT (site AACCTTCCTAT)”, the “recombinant UMI read abundance (log10)” value was 0.011. In the case of “AACCGCCCATGGACCGGTTTTCCCGGTAATCCGTATTTGAA (site AACCGCCCTTT)”, the “recombinant UMI read abundance (log10)” value was 0.156. For “AACCGTCCATGGACCGGTTTTCCCGGTAATCCGTATTTGTT (site AACCGTCCTAA)”, the “recombinant UMI read abundance (log10)” value was 0.00892. With “AACCGTCCATGGACCGGTTTTCCCGGTAATCCGTATTTGTT (site AACCGTCCTAC)” the “recombinant UMI read abundance (log10)” value was 0.0168. For “AACCGTCCATGGACCGGTTTTCCCGGTAATCCGTATTTGTT (site AACCGTCCTAG)”, the “recombinant UMI read abundance (log10)” value was 0.794. With “AACCGTCCATGGACCGGTTTTCCCGGTAATCCGTATTTGTT (site AACCGTCCTAT)” the “recombinant UMI read abundance (log10)” value was 0.0199. For “AACCTCTCATGGACCGGTTTTCCCGGTAATCCGTATTTGCC (site AACCTCTCTGG)”, the “recombinant UMI read abundance (log10)” value was 2.62. With “AACGAGCCATGGACCGGTTTTCCCGGTAATCCGTATTTGGC (site AACGAGCCTGC)” the “recombinant UMI read abundance (log10)” value was 0. With “AACGATCCATGGACCGGTTTTCCCGGTAATCCGTATTTGGC (site AACGATCCTGC)” the “recombinant UMI read abundance (log10)” value was 1.07. With “AACGGCCCATGGACCGGTTTTCCCGGTAATCCGTATTTGTT (site AACGGCCCTAA)” the “recombinant UMI read abundance (log10)” value was 0. With “AACGGCCCATGGACCGGTTTTCCCGGTAATCCGTATTTGTT (site CACGGCCCTAA)” the “recombinant UMI read abundance (log10)” value was 0.071. In the case of “AACGGCCCATGGACCGGTTTTCCCGGTAATCCGTATTTGTT (site GACGGCCCTAA)”, the “recombinant UMI read abundance (log10)” value was 0.0173. In the case of “AACGGCCCATGGACCGGTTTTCCCGGTAATCCGTATTTGTT (site TACGGCCCTAA)”, the “recombinant UMI read abundance (log10)” value was 0.00583. With “AACTAAGCATGGACCGGTTTTCCCGGTAATCCGTATTTGGT (site AACTAAGCTAC)” the “recombinant UMI read abundance (log10)” value was 1.25. For “AACTAGACATGGACCGGTTTTCCCGGTAATCCGTATTTGGG (site AACTAGACTCC)”, the “recombinant UMI read abundance (log10)” value was 0.0148. In the case of “AACTAGACATGGACCGGTTTTCCCGGTAATCCGTATTTGGG (site ACCTAGACTCC)”, the “recombinant UMI read abundance (log10)” value was 0.0296. For “AACTAGACATGGACCGGTTTTCCCGGTAATCCGTATTTGGG (site AGCTAGACTCC)”, the “recombinant UMI read abundance (log10)” value was 0.0187. For “AACTAGACATGGACCGGTTTTCCCGGTAATCCGTATTTGGG (site ATCTAGACTCC)”, the “recombinant UMI read abundance (log10)” value was 0.0377. In the case of “AACTAGACATGGACCGGTTTTCCCGGTAATCCGTATTTGGT (site AACTAGACTAC)”, the “recombinant UMI read abundance (log10)” value was 0.776. For “AACTATTCATGGACCGGTTTTCCCGGTAATCCGTATTTGTC (site AACTATTCTGA)”, the “recombinant UMI read abundance (log10)” value was 0.671. For “AACTCTACATGGACCGGTTTTCCCGGTAATCCGTATTTGAT (site AACTCTACTAT)”, the “recombinant UMI read abundance (log10)” value was 0.82. In the case of “AACTGTCCATGGACCGGTTTTCCCGGTAATCCGTATTTGAT (site AACAGTCCTAT)”, the “recombinant UMI read abundance (log10)” value was 0.00914. For “AACTGTCCATGGACCGGTTTTCCCGGTAATCCGTATTTGAT (site AACCGTCCTAT)”, the “recombinant UMI read abundance (log10)” value was 0.423. With “AACTGTCCATGGACCGGTTTTCCCGGTAATCCGTATTTGAT (site AACGGTCCTAT)” the “recombinant UMI read abundance (log10)” value was 0.0127. For “AACTGTCCATGGACCGGTTTTCCCGGTAATCCGTATTTGAT (site AACTGTCCTAT)”, the “recombinant UMI read abundance (log10)” value was 0.173. With “AAGAACACATGGACCGGTTTTCCCGGTAATCCGTATTTGAT (site AAGAACACTAT)” the “recombinant UMI read abundance (log10)” value was 2.22. In the case of “AAGAAGACATGGACCGGTTTTCCCGGTAATCCGTATTTGCA (site AAGAAGACTTG)”, the “recombinant UMI read abundance (log10)” value was 2.73. For “AAGAAGACATGGACCGGTTTTCCCGGTAATCCGTATTTGCA (site ACGAAGACTTG)”, the “recombinant UMI read abundance (log10)” value was 1.66. In the case of “AAGAAGACATGGACCGGTTTTCCCGGTAATCCGTATTTGCA (site AGGAAGACTTG)”, the “recombinant UMI read abundance (log10)” value was 2.2. In the case of “AAGAAGACATGGACCGGTTTTCCCGGTAATCCGTATTTGCA (site ATGAAGACTTG)”, the “recombinant UMI read abundance (log10)” value was 1.95. For “AAGAATACATGGACCGGTTTTCCCGGTAATCCGTATTTGCA (site AAGAATACTTG)”, the “recombinant UMI read abundance (log10)” value was 1.67. In the case of “AAGAATACATGGACCGGTTTTCCCGGTAATCCGTATTTGCA (site CAGAATACTTG)”, the “recombinant UMI read abundance (log10)” value was 1.37. For “AAGAATACATGGACCGGTTTTCCCGGTAATCCGTATTTGCA (site GAGAATACTTG)”, the “recombinant UMI read abundance (log10)” value was 0. With “AAGAATACATGGACCGGTTTTCCCGGTAATCCGTATTTGCA (site TAGAATACTTG)” the “recombinant UMI read abundance (log10)” value was 1.7. With “AAGACGCCATGGACCGGTTTTCCCGGTAATCCGTATTTGAT (site AAGACGCCTAT)” the “recombinant UMI read abundance (log10)” value was 0.386. For “AAGACTACATGGACCGGTTTTCCCGGTAATCCGTATTTGAC (site AAGACTACTGT)”, the “recombinant UMI read abundance (log10)” value was 2.69. In the case of “AAGACTACATGGACCGGTTTTCCCGGTAATCCGTATTTGAC (site ACGACTACTGT)”, the “recombinant UMI read abundance (log10)” value was 0.383. For “AAGACTACATGGACCGGTTTTCCCGGTAATCCGTATTTGAC (site AGGACTACTGT)”, the “recombinant UMI read abundance (log10)” value was 1.33. In the case of “AAGACTACATGGACCGGTTTTCCCGGTAATCCGTATTTGAC (site ATGACTACTGT)”, the “recombinant UMI read abundance (log10)” value was 1.25. For “AAGATTTCATGGACCGGTTTTCCCGGTAATCCGTATTTGGA (site AAGATTTCTTC)”, the “recombinant UMI read abundance (log10)” value was 2.1. For “AAGCACGCATGGACCGGTTTTCCCGGTAATCCGTATTTGTG (site AAGCACGCTCA)”, the “recombinant UMI read abundance (log10)” value was 1.42. For “AAGCACGCATGGACCGGTTTTCCCGGTAATCCGTATTTGTG (site AAGCACGCTCC)”, the “recombinant UMI read abundance (log10)” value was 0. For “AAGCACGCATGGACCGGTTTTCCCGGTAATCCGTATTTGTG (site AAGCACGCTCG)”, the “recombinant UMI read abundance (log10)” value was 1.22. In the case of “AAGCACGCATGGACCGGTTTTCCCGGTAATCCGTATTTGTG (site AAGCACGCTCT)”, the “recombinant UMI read abundance (log10)” value was 0.906. For “AAGCAGGCATGGACCGGTTTTCCCGGTAATCCGTATTTGGG (site AAGCAAGCTCC)”, the “recombinant UMI read abundance (log10)” value was 0.00504.
